From patent publication US6737383B1, “Herbicidal oxadiazolidines” (priority 1999, dated 2004)

Tests used:
purple nutsedge = test: Test B pre/postemergence purple nutsedge; type: in vivo, Cyperus rotundus
Source text: (§1) Seeds of bedstraw (Galium aparine), blackgrass (Alopecurus myosuroides), surinam grass (Brachiaria decumbens), cocklebur (Xanthium strumarium), corn (Zea mays), crabgrass (Digitaria sanguinalis), giant foxtail (Setaria faberii), morningglory (Ipomoea hederacea), pigweed (Amaranthus retroflexus), rape (Brassica napus), soybean (Glycine max), sugar beet (Beta vulgaris), velvetleaf (Abutilon theophrasti), wheat (Triticum aestivum), wild oat (Avena fatua) and purple nutsedge (Cyperus rotundus) tubers were planted and treated preemnergence with test chemicals formulated in a non-phytotoxic solvent mixture which included a surfactant.
(§2) At the same time, these crop and weed species were also treated with postemergence applications of test chemicals formulated in the same manner. Plants ranged in height from 2 to 18 cm (1- to 4-leaf stage) for postemergence treatments. Plant species in the flood test consisted of rice (Oryza sativa), smallflower flatsedge (Cyperus difformis), duck salad (Heteranthera limosa) and bamyardgrass (Echinochloa crus-galli) grown to the 2-leaf stage for testing. Treated plants and controls were maintained in a greenhouse for twelve to sixteen days, after which all species were compared to controls and visually evaluated. Plant response ratings, summarized in Table B, are based on a scale of 0 to 10 where 0 is no effect and 10 is complete control. A dash (−) response means no test result.

sugar beet = test: Test B pre/postemergence sugar beet; type: in vivo, Beta vulgaris
Source text: as §1, §2

surinam grass = test: Test B pre/postemergence surinam grass; type: in vivo, Brachiaria decumbens
Source text: as §1, §2

giant foxtail = test: Test B pre/postemergence giant foxtail; type: in vivo, Setaria faberii
Source text: as §1, §2

bedstraw = test: Test B pre/postemergence bedstraw; type: in vivo, Galium aparine
Source text: as §1, §2

rape = test: Test B pre/postemergence rape; type: in vivo, Brassica napus
Source text: as §1, §2

velvetleaf = test: Test B pre/postemergence velvetleaf; type: in vivo, Abutilon theophrasti
Source text: as §1, §2

soybean = test: Test B pre/postemergence soybean; type: in vivo, Glycine max
Source text: as §1, §2

corn = test: Test B pre/postemergence corn; type: in vivo, Zea mays
Source text: as §1, §2

crabgrass = test: Test B pre/postemergence crabgrass; type: in vivo, Digitaria sanguinalis
Source text: as §1, §2

wheat = test: Test B pre/postemergence wheat; type: in vivo, Triticum aestivum
Source text: as §1, §2

wild oat = test: Test B pre/postemergence wild oat; type: in vivo, Avena fatua
Source text: as §1, §2

blackgrass = test: Test B pre/postemergence blackgrass; type: in vivo, Alopecurus myosuroides
Source text: as §1, §2

cocklebur = test: Test B pre/postemergence cocklebur; type: in vivo, Xanthium strumarium
Source text: as §1, §2

pigweed = test: Test B pre/postemergence pigweed; type: in vivo, Amaranthus retroflexus
Source text: as §1, §2

morningglory = test: Test B pre/postemergence morningglory; type: in vivo, Ipomoea hederacea
Source text: as §1, §2

[1] = Postemergence, Rate 62 g/ha, scale 0 to 10, 0 is no effect, 10 is complete control
[2] = Postemergence, Rate 125 g/ha, scale of 0 to 10 where 0 is no effect and 10 is complete control
[3] = Preemergence, Rate 125 g/ha, scale of 0 to 10 where 0 is no effect and 10 is complete control
[4] = Preemergence, Rate 250 g/ha, scale 0 (no effect) to 10 (complete control)
[5] = Rate 250 g/ha, Postemergence, scale 0 to 10, 0 is no effect, 10 is complete control
[6] = Rate 500 g/ha, Postemergence, scale 0 to 10, 0 is no effect, 10 is complete control
[7] = Preemergence, Rate 62 g/ha, scale of 0 to 10 where 0 is no effect and 10 is complete control
[8] = Preemergence, Rate 500 g/ha, scale of 0 to 10 where 0 is no effect and 10 is complete control

SMILES: CC(=O)OCC(CCl)n1c(=O)on(C(=O)N(c2ccc(F)cc2F)C(C)C)c1=O (racemic) [Compound 708]
- Plant response rating, Nutsedge (purple nutsedge; [1]): 0
- Nutsedge plant response rating (purple nutsedge; [2]): 0
- Plant response rating, Nutsedge (purple nutsedge; [3]): 0
- Nutsedge plant response rating (purple nutsedge; [4]): 0
- Nutsedge plant response rating (purple nutsedge; [5]): 0
- Nutsedge plant response rating (purple nutsedge; [6]): 0
- Plant response rating, Sugarbeets (sugar beet; [1]): 0
- Sugarbeets plant response rating (sugar beet; [2]): 0
- Sugarbeets plant response rating (sugar beet; [7]): 0
- Plant response rating, Sugarbeets (sugar beet; [3]): 0
- Sugarbeets plant response rating (sugar beet; [4]): 0
- Sugarbeets plant response rating (sugar beet; [5]): 0
- Sugarbeets plant response rating (sugar beet; [6]): 0
- Plant response rating, B. signalgrass (surinam grass; [1]): 0
- B. signalgrass plant response rating (surinam grass; [2]): 0
- B. signalgrass plant response rating (surinam grass; [7]): 0
- Plant response rating, B. signalgrass (surinam grass; [3]): 0
- B. signalgrass plant response rating (surinam grass; [4]): 0
- Plant response rating, B. signalgrass (surinam grass; [8]): 0
- B. signalgrass plant response rating (surinam grass; [5]): 0
- B. signalgrass plant response rating (surinam grass; [6]): 2
- Plant response rating, Giant foxtail (giant foxtail; [1]): 0
- Giant foxtail plant response rating (giant foxtail; [2]): 2
- Giant foxtail plant response rating (giant foxtail; [7]): 5
- Plant response rating, Giant foxtail (giant foxtail; [3]): 7
- Giant foxtail plant response rating (giant foxtail; [4]): 8
- Giant foxtail plant response rating (giant foxtail; [5]): 4
- Giant foxtail plant response rating (giant foxtail; [6]): 5
- Plant response rating, Bedstraw (bedstraw; [1]): 0
- Bedstraw plant response rating (bedstraw; [2]): 0
- Bedstraw plant response rating (bedstraw; [7]): 0
- Plant response rating, Bedstraw (bedstraw; [3]): 0
- Bedstraw plant response rating (bedstraw; [4]): 0
- Plant response rating, Bedstraw (bedstraw; [8]): 0
- Plant response rating, Rape (rape; [1]): 0
- Rape plant response rating (rape; [2]): 0
- Rape plant response rating (rape; [7]): 0
- Plant response rating, Rape (rape; [3]): 0
- Rape plant response rating (rape; [4]): 0
- Rape plant response rating (rape; [5]): 0
- Rape plant response rating (rape; [6]): 0
- Plant response rating, Velvetleaf (velvetleaf; [1]): 0
- Velvetleaf plant response rating (velvetleaf; [2]): 0
- Velvetleaf plant response rating (velvetleaf; [7]): 0
- Plant response rating, Velvetleaf (velvetleaf; [3]): 0
- Velvetleaf plant response rating (velvetleaf; [4]): 2
- Velvetleaf plant response rating (velvetleaf; [5]): 3
- Velvetleaf plant response rating (velvetleaf; [6]): 5
- Plant response rating, Soybean (soybean; [1]): 3
- Soybean plant response rating (soybean; [2]): 4
- Soybean plant response rating (soybean; [7]): 0
- Plant response rating, Soybean (soybean; [3]): 0
- Soybean plant response rating (soybean; [4]): 0
- Soybean plant response rating (soybean; [5]): 4
- Soybean plant response rating (soybean; [6]): 4
- Plant response rating, Corn (corn; [1]): 0
- Corn plant response rating (corn; [2]): 0
- Corn plant response rating (corn; [7]): 0
- Plant response rating, Corn (corn; [3]): 0
- Corn plant response rating (corn; [4]): 0
- Corn plant response rating (corn; [5]): 0
- Corn plant response rating (corn; [6]): 0
- Plant response rating, Crabgrass (crabgrass; [1]): 0
- Crabgrass plant response rating (crabgrass; [2]): 0
- Crabgrass plant response rating (crabgrass; [7]): 6
- Plant response rating, Crabgrass (crabgrass; [3]): 7
- Crabgrass plant response rating (crabgrass; [4]): 10
- Crabgrass plant response rating (crabgrass; [5]): 0
- Crabgrass plant response rating (crabgrass; [6]): 4
- Plant response rating, Wheat (wheat; [1]): 0
- Wheat plant response rating (wheat; [2]): 0
- Wheat plant response rating (wheat; [7]): 0
- Plant response rating, Wheat (wheat; [3]): 0
- Wheat plant response rating (wheat; [4]): 0
- Wheat plant response rating (wheat; [5]): 0
- Wheat plant response rating (wheat; [6]): 0
- Plant response rating, Wild oats (wild oat; [1]): 0
- Wild oats plant response rating (wild oat; [2]): 0
- Wild oats plant response rating (wild oat; [7]): 0
- Plant response rating, Wild oats (wild oat; [3]): 0
- Wild oats plant response rating (wild oat; [4]): 0
- Wild oats plant response rating (wild oat; [5]): 0
- Wild oats plant response rating (wild oat; [6]): 0
- Plant response rating, Blackgrass (blackgrass; [1]): 0
- Blackgrass plant response rating (blackgrass; [2]): 0
- Blackgrass plant response rating (blackgrass; [7]): 0
- Plant response rating, Blackgrass (blackgrass; [3]): 2
- Blackgrass plant response rating (blackgrass; [4]): 3
- Plant response rating, Blackgrass (blackgrass; [8]): 5
- Blackgrass plant response rating (blackgrass; [5]): 2
- Blackgrass plant response rating (blackgrass; [6]): 2
- Plant response rating, Cocklebur (cocklebur; [1]): 0
- Cocklebur plant response rating (cocklebur; [2]): 0
- Cocklebur plant response rating (cocklebur; [7]): 0
- Plant response rating, Cocklebur (cocklebur; [3]): 0
- Cocklebur plant response rating (cocklebur; [4]): 0
- Plant response rating, Cocklebur (cocklebur; [8]): 0
- Cocklebur plant response rating (cocklebur; [5]): 0
- Cocklebur plant response rating (cocklebur; [6]): 0
- Plant response rating, Redroot pigweed (pigweed; [1]): 0
- Redroot pigweed plant response rating (pigweed; [2]): 0
- Redroot pigweed plant response rating (pigweed; [7]): 0
- Plant response rating, Redroot pigweed (pigweed; [3]): 3
- Redroot pigweed plant response rating (pigweed; [5]): 0
- Redroot pigweed plant response rating (pigweed; [6]): 5
- Plant response rating, Morningglory (morningglory; [1]): 0
- Morningglory plant response rating (morningglory; [2]): 2
- Morningglory plant response rating (morningglory; [7]): 0
- Plant response rating, Morningglory (morningglory; [3]): 0
- Morningglory plant response rating (morningglory; [4]): 0
- Morningglory plant response rating (morningglory; [5]): 2
- Morningglory plant response rating (morningglory; [6]): 5
